Assay results as given in patent US9844536B2, “3-(1H-imidazo[4,5-C]pyridin-2-yl)-1H-pyrazolo[3,4-C]pyridine and therapeutic uses thereof” (Samumed, LLC, priority 2014, dated 2017).

Columns and labels:
Type in all cases: cell-based
[1] = test system: Wnt pathway (Sp5-Luc reporter, SW480 cells); test: Sp5-Luc reporter gene screening assay for Wnt activity in SW480 colon carcinoma cells; conditions: Homo sapiens
In short: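 IC50 values come from variable-slope four-parameter fits of luciferase signal normalized to DMSO wells. Stable Sp5-Luc reporter SW480 colon carcinoma cells were exposed to compounds in a 3-fold dilution series (source plates from 10 mM stock) for forty-two hours at 37 °C.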

[2] = test system: primary human mesenchymal stem cells (hMSCs); test: Chondrogenesis induction screen in primary human mesenchymal stem cells (nodules, Rhodamine B/Nile Red); conditions: 144 h, 6 days; for EC (100% TGF-beta3 activity): concentration required to induce chondrogenesis equivalent to TGF-β3 (10 ng/mL), read-out: Conc (nM) of 100% TGF-β3 activity; for Emax: relative to TGF-β3 (10 ng/mL) positive control, read-out: Max. Activity as % TGF-β3 activity
Experimental: The above synthesized compounds were screened using primary human mesenchymal stem cells (hMSCs) to determine their ability to induce chondrogenesis (process by which cartilage is developed).
Primary human mesenchymal stem cells (hMSCs) were purchased from Lonza (Walkersville, Md.) and expanded in Mesenchymal Stem Cell Growth Media (Lonza). Cells between passage 3 and 6 were used for the experiments.
Each compound was dissolved in DMSO as a 10 mM stock and used to prepare compound source plates. Serial dilution (1:3, 6-point dose-response curves from 2700 nM to 10 nM) and compound transfer was performed using the ECHO 550 (Labcyte, Sunnyvale, Calif.) into 96-well clear bottom assay plates (Greiner Bio-One) with appropriate DMSO backfill for a final DMSO concentration of 0.03%. hMSCs were plated at 20,000 cells/well in 250 μL/well Incomplete Chondrogenic Induction Medium (Lonza; DMEM, dexamethasone, ascorbate, insulin-transferrin-selenium [ITS supplement], gentamycin-amphotericin [GA-1000], sodium pyruvate, proline and L-glutamine). TGF-β3 (10 ng/mL) was used as a positive control for differentiation while negative control wells were treated with 75 nL DMSO for normalization and calculating EC50 values. Cells were incubated at 37° C. and 5% CO2 for 6 days. To image chondrogenic nodules, the cells were fixed using 4% formaldehyde (Electron Microscopy Sciences), and stained with 2 μg/mL Rhodamine B (Sigma-Aldrich) and 20 μM Nile Red (Sigma-Aldrich) [Johnson K., et. al, A Stem Cell-Based Approach to Cartilage Repair, Science, (2012), 336(6082), 717-721]. The nodules imaged (4 images per well at 4× magnification) by excitation at 531 nm and emission at 625 nm and quantified using the CellInsight CX5 (Thermo Scientific). Number of nodules in each well was normalized to the average of 3 DMSO treated wells on the same plate using Excel (Microsoft Inc.). The normalized averages (fold change over DMSO) of 3 replicate wells for each compound concentration were calculated. Due to solubility limitations of some of the compounds, curve fitting was incomplete leading to inaccurate EC50 determinations.
Using TGF-03 as a positive control, the concentration of test compounds required to induce equivalent levels of chondrogenesis is reported. In addition, the maximum activity of each compound and the respective dose that each compound reached maximum chondrogenesis activity is reported.

LL29 cells = test: Inhibition of the fibrotic process (αSMA staining) in TGF-β1 treated primary human fibroblasts from IPF patients; conditions: Fibroblast, 96 h, TGF-β1 20 ng/mL, 4 days, dose-response 10 μM to 1.87 nM, read-out: Inhibition of fibrosis EC50
In short: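 LL29 IPF lung fibroblasts in 1% FBS were stimulated with TGF-β1 (20 ng/mL) and treated 4 days at 37 °C with compound (11 points, 10 μM–1.87 nM, 0.1% DMSO). The % αSMA-positive cells, imaged after excluding SYTOX-positive dead cells, was normalized to TGF-β1/DMSO wells. EC50 came from nonlinear regression over triplicates.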

| Compound | IC50 [1] [nM] | EC (100% TGF-beta3 activity) [2] [nM] | Emax [2] [%] | EC50 (LL29 cells) [nM] |
| --- | --- | --- | --- | --- |
| CCCC(=O)Nc1cncc(-c2cc3c(-c4nc5c(-c6cccc(F)c6)nccc5[nH]4)n[nH]c3cn2)c1 [Compound 17, N-(5-(3-(4-(3-Fluorophenyl)-1H-imidazo[4,5-c]pyridin-2-yl)-1H-pyrazolo[3,4-c]pyridin-5-yl)pyridin-3-yl)butyramide] | 10.7 | 67.8 | 10 | ≤ 9 |
| c1cncc(-c2cc3c(-c4nc5c(-c6cccnc6)nccc5[nH]4)n[nH]c3cn2)c1 [Compound 82, 5-(Pyridin-3-yl)-3-(4-(pyridin-3-yl)-1H-imidazo[4,5-c]pyridin-2-yl)-1H-pyrazolo[3,4-c]pyridine] | 1.7 | 44.5 | – | – |
| Cc1cn(-c2nccc3[nH]c(-c4n[nH]c5cnc(-c6cncc(NC(=O)C(C)(C)C)c6)cc45)nc23)cn1 [Compound 190, N-(5-(3-(4-(4-Methyl-1H-imidazol-1-yl)-1H-imidazo[4,5-c]pyridin-2-yl)-1H-pyrazolo[3,4-c]pyridin-5-yl)pyridin-3-yl)pivalamide] | 32.8 | 71.8 | 100 | – |
| CCCC(=O)Nc1cncc(-c2cc3c(-c4nc5c(-c6cc(F)cc(CNS(C)(=O)=O)c6)nccc5[nH]4)n[nH]c3cn2)c1 [Compound 433, N-(5-(3-(4-(3-Fluoro-5-(methylsulfonamidomethyl)phenyl)-1H-imidazo[4,5-c]pyridin-2-yl)-1H-pyrazolo[3,4-c]pyridin-5-yl)pyridin-3-yl)butyramide] | > 10000 | – | – | 195 |
| CS(=O)(=O)NCc1cc(F)cc(-c2nccc3[nH]c(-c4n[nH]c5cnc(-c6cncc(CNCc7ccccc7)c6)cc45)nc23)c1 [Compound 439, N-(3-(2-(5-(5-((Benzylamino)methyl)pyridin-3-yl)-1H-pyrazolo[3,4-c]pyridin-3-yl)-1H-imidazo[4,5-c]pyridin-4-yl)-5-fluorobenzyl)methanesulfonamide] | 67.3 | – | – | ≤ 9 |
| CS(=O)(=O)NCc1cc(F)cc(-c2nccc3[nH]c(-c4n[nH]c5cnc(-c6cncnc6)cc45)nc23)c1 [Compound 442, N-(3-Fluoro-5-(2-(5-(pyrimidin-5-yl)-1H-pyrazolo[3,4-c]pyridin-3-yl)-1H-imidazo[4,5-c]pyridin-4-yl)benzyl)methanesulfonamide] | 30.8 | – | – | ≤ 9 |
| CCNCc1cncc(-c2cc3c(-c4nc5c(-c6cc(F)cc(NCCN(C)C)c6)nccc5[nH]4)n[nH]c3cn2)c1 [Compound 448, N^1-(3-(2-(5-(5-((Ethylamino)methyl)pyridin-3-yl)-1H-pyrazolo[3,4-c]pyridin-3-yl)-1H-imidazo[4,5-c]pyridin-4-yl)-5-fluorophenyl)-N2,N2-dimethylethane-1,2-diamine] | 394 | – | – | ≥ 9990 |
| CC(C)Nc1cncc(-c2cc3c(-c4nc5c(-c6cc(F)cc(NCCN(C)C)c6)nccc5[nH]4)n[nH]c3cn2)c1 [Compound 454, N^1-(3-Fluoro-5-(2-(5-(5-(isopropylamino)pyridin-3-yl)-1H-pyrazolo[3,4-c]pyridin-3-yl)-1H-imidazo[4,5-c]pyridin-4-yl)phenyl)-N2,N2-dimethylethane-1,2-diamine] | 266 | – | – | 1620 |
| CCCCC(=O)Nc1cncc(-c2cc3c(-c4nc5c(-c6cc(F)cc(NCCN(C)C)c6)nccc5[nH]4)n[nH]c3cn2)c1 [Compound 460, N-(5-(3-(4-(3-((2-(Dimethylamino)ethyl)amino)-5-fluorophenyl)-1H-imidazo[4,5-c]pyridin-2-yl)-1H-pyrazolo[3,4-c]pyridin-5-yl)pyridin-3-yl)pentanamide] | 203 | – | – | ≥ 9990 |
| CN(C)CCNc1cc(F)cc(-c2nccc3[nH]c(-c4n[nH]c5cnc(-c6cncc(CNCC7CCCC7)c6)cc45)nc23)c1 [Compound 466, N^1-(3-(2-(5-(5-(((Cyclopentylmethyl)amino)methyl)pyridin-3-yl)-1H-pyrazolo[3,4-c]pyridin-3-yl)-1H-imidazo[4,5-c]pyridin-4-yl)-5-fluorophenyl)-N2,N2-dimethylethane-1,2-diamine] | 342 | – | – | 74 |
| Fc1cccc(-c2nccc3[nH]c(-c4n[nH]c5cnc(C6CCNCC6)cc45)nc23)c1 [Compound 937, 3-(4-(3-Fluorophenyl)-1H-imidazo[4,5-c]pyridin-2-yl)-5-(piperidin-4-yl)-1H-pyrazolo[3,4-c]pyridine] | > 10000 | – | – | 2610 |
| Fc1cccc(-c2nccc3[nH]c(-c4n[nH]c5cnc(C6=CCNCC6)cc45)nc23)c1 [Compound 938, 3-(4-(3-Fluorophenyl)-1H-imidazo[4,5-c]pyridin-2-yl)-5-(1,2,3,6-tetrahydropyridin-4-yl)-1H-pyrazolo[3,4-c]pyridine] | 125 | – | – | 198 |
| Fc1cccc(-c2nccc3[nH]c(-c4n[nH]c5cnc(-c6cn[nH]c6)cc45)nc23)c1 [Compound 939, 3-(4-(3-Fluorophenyl)-1H-imidazo[4,5-c]pyridin-2-yl)-5-(1H-pyrazol-4-yl)-1H-pyrazolo[3,4-c]pyridine] | 1 | – | – | ≤ 9 |
| Cc1ncc(-c2cc3c(-c4nc5c(-c6cccc(F)c6)nccc5[nH]4)n[nH]c3cn2)n1C [Compound 941, 5-(1,2-Dimethyl-1H-imidazol-5-yl)-3-(4-(3-fluorophenyl)-1H-imidazo[4,5-c]pyridin-2-yl)-1H-pyrazolo[3,4-c]pyridine] | 1010 | – | – | 76 |
| O=C(CC1CCNCC1)Nc1cncc(-c2cc3c(-c4nc5c(-c6cccc(F)c6)nccc5[nH]4)n[nH]c3cn2)c1 [Compound 945, N-(5-(3-(4-(3-Fluorophenyl)-1H-imidazo[4,5-c]pyridin-2-yl)-1H-pyrazolo [3,4-c]pyridin-5-yl)pyridin-3-yl)-2-(piperidin-4-yl)acetamide] | > 10000 | – | – | 60 |
| Oc1cncc(-c2cc3c(-c4nc5c(-c6cccc(F)c6)nccc5[nH]4)n[nH]c3cn2)c1 [Compound 949, 5-(3-(4-(3-Fluorophenyl)-1H-imidazo[4,5-c]pyridin-2-yl)-1H-pyrazolo[3,4-c]pyridin-5-yl)pyridin-3-ol] | 28 | – | – | ≥ 9990 |
| Fc1cccc(-c2nccc3[nH]c(-c4n[nH]c5cnc(-c6ccccn6)cc45)nc23)c1 [Compound 953, 3-(4-(3-Fluorophenyl)-1H-imidazo[4,5-c]pyridin-2-yl)-5-(pyridin-2-yl)-1H-pyrazolo[3,4-c]pyridine] | 320 | – | – | 1940 |
| Fc1cccc(-c2nccc3[nH]c(-c4n[nH]c5cnc(-c6cnccn6)cc45)nc23)c1 [Compound 954, 3-(4-(3-Fluorophenyl)-1H-imidazo[4,5-c]pyridin-2-yl)-5-(pyrazin-2-yl)-1H-pyrazolo[3,4-c]pyridine] | 20 | – | – | ≥ 9990 |
| CC(C)CC(=O)Nc1cncc(-c2cc3c(-c4nc5c(-c6cc(O)cc(F)c6)nccc5[nH]4)n[nH]c3cn2)c1 [Compound 1350, N-(5-(3-(4-(3-Fluoro-5-hydroxyphenyl)-1H-imidazo[4,5-c]pyridin-2-yl)-1H-pyrazolo[3,4-c]pyridin-5-yl)pyridin-3-yl)-3-methylbutanamide] | 135 | – | – | 135 |
| COc1cc(F)cc(-c2nccc3[nH]c(-c4n[nH]c5cnc(-c6cncc(NC(=O)CC(C)C)c6)cc45)nc23)c1 [Compound 1394, N-(5-(3-(4-(3-Fluoro-5-methoxyphenyl)-1H-imidazo[4,5-c]pyridin-2-yl)-1H-pyrazolo[3,4-c]pyridin-5-yl)pyridin-3-yl)-3-methylbutanamide] | 151 | – | – | 332 |
| CN(C)CC(=O)Nc1cncc(-c2cc3c(-c4nc5c(-c6cccc(F)c6)nccc5[nH]4)n[nH]c3cn2)c1 [Compound 1437, 2-(Dimethylamino)-N-(5-(3-(4-(3-fluorophenyl)-1H-imidazo[4,5-c]pyridin-2-yl)-1H-pyrazolo[3,4-c]pyridin-5-yl)pyridin-3-yl)acetamide] | 38 | – | – | 342 |
